From patent EP4548971A1, “1,4-BENZOTHIAZEPINES AND RELATED COMPOUNDS WITH CYCLOPROPANOL GROUPS AS MULTI-TARGETED DRUGS” (Georg-August-Universität Göttingen Stiftung Öffentlichen …, priority 2023, dated 2025)
“Also recorded” adds a separate entry of the source.

Molecular target: T1, SERCA2 (Homo sapiens, UniProt P16615)
T1 construct: endogenous in cells; host or cells: HEK-293T cells, microsomal membrane vesicles
Test: NADH-coupled ATPase assay on microsomal membrane vesicles from HEK-293T cells (HEK-293 ER)
Assay type: biochemical
Design: key to SERCA2a HEK ER effect class: +++: a strong effect, comparable to or greater than that of a known compounds at a given concentration (25 µM in RyR2 R-CEPIA1er assay, 10 µM in caffeine assay and on microsomal membrane vesicles); ++: moderate effect; +: observable effect; -: no effect
Conditions: for SERCA2a HEK ER effect class: 10 µM on microsomal membrane vesicles; for effect on SERCA2 ATPase activity, in words: microsomes from HEK-293 ER, 10 µM (1 µM for 14b), vs. 0.1 % DMSO
Description: Isolation of microsomal membrane vesicles from HEK-293T cells (HEK-293 ER) was performed according to Stewart et al.^61 HEK-293T cells were harvested with Trypsin/EDTA, washed twice with ice-cold PBS containing protease inhibitor cocktail (cOmplete™, Roche, Mannheim, Germany) and centrifuged 800 × g for 5 min. The pellet was resuspended in ice-cold lysis buffer (1 mM EDTA, 10 mM HEPES, cOmplete, pH 7.4) and incubated on ice for 20 minutes. After the cells were homogenized with a tight fitting Dounce homogenizer (10-20 strokes), an equal volume of restoration buffer (500 mM sucrose, 10 mM HEPES, cOmplete, pH 7.2) was added and the cells were homogenized again (10-20 strokes). The homogenate was centrifuged at 10000 × g for 20 min at 4° C. The supernatant was collected and centrifuged again for another 2 hours (100000 × g at 4° C). Then the pellet was carefully resuspended in resuspension buffer (250 mM sucrose, 10 mM HEPES, cOmplete, pH 7.2) on ice by pipetting the solution up and down until fully dissolved. The obtained solution was diluted to a protein concentration of 15-20 µg/µl with the resuspension buffer, the aliquots were snap frozen in liquid nitrogen and stored at - 80 °C until usage.
To determine whether new compounds could increase the SERCA2a activity, HEK-293 microsomes (40 - 150 µg of total protein) or mouse ventricular microsomes (1 - 20 µg of total protein) were diluted in 100 µl of the assay buffer used for measurement of SERCA activity (described below) and incubated at room temperature for 5 minutes prior to the experiments. The measurements of SERCA2a activity were made at 28 °C by using a NADH -coupled ATPase assay. Briefly, the assay buffer contained 60 mM MOPS, 120 mM KCI, 6 mM MgCl2, 1 mM EGTA, 5 mM NaN3, 0.5 mM phosphoenolpyruvate and 1.5 mM CaCl2, pH 7.0. Before the reaction was started by the injection of […] ATP (resulting in 2 mM final concentration in the well), 5 units/mL of both lactate dehydrogenase and pyruvate kinase, 0.5 mM NADH, and 1 µM Ca^2+ ionophore A-23187 (Sigma, C-7522) were added to the diluted sample with or without the tested compound. The 1.5 mM Ca/EGTA buffer has a free Ca^2+ concentration of about 200 µM. The NADH fluorescence decrease was recorded each 2 s for 10 min course on a multiwell plate reader TECAN Spark 20M in 96-well glass bottom plates (MatTek Corporation; Cat. No. PBK96G-1.5-5-F). Fluorescence was evoked by 380 nm excitation wavelength and collected in a bottom-read mode at 425 nm. Exposure - 30 flashes, excitation bandwidth - 10 nm, emission bandwidth - 10 nm. ATP was injected at 30 s. […] The data were analyzed with computer software GraphPad Prism version 8.3.1 (GraphPad Software, Inc.). The difference in signal decrease with and without microsomes was taken as an indicator for the additional ATPase activity performed by SERCA2a. The obtained values for maximal SERCA2a activity were normalized for total protein concentration. Maximal SERCA2a activity values are reported as percentages of control (0.1% DMSO) values. Microsomal samples that were kept on ice until usage and set to 100%.
In an NADH assay, the change in NADH coenzyme fluorescence reflects the level of the consumption of ATP, which can be taken as an indicator of SERCA2 activity [G. B. Warren, P. A. Toon, N. J. Birdsall, A. G. Lee, J. C. Metcalfe, Reconstitution of a calcium pump using defined membrane components. Proc. Natl. Acad. Sci. U.S.A. 1974, 71, 622 - 626]. ATP hydrolysis by SERCA2 is required to pump calcium ions into the SER. A higher rate of ATP hydrolysis corresponds to enhanced SERCA2 ATPase activity that leads to a greater pumping of calcium ions into the SR.
The rate of NADH oxidation, which is coupled to ATP hydrolysis, was observed by measuring changes in NADH intrinsic fluorescence over time after ATP injection into microsomal membranes enriched in SER vesicles isolated from mouse heart ventricles (mouse SER) and ER vesicles from HEK-293T cells (HEK-293 ER). […]

T1 sequence (P16615 whole entry): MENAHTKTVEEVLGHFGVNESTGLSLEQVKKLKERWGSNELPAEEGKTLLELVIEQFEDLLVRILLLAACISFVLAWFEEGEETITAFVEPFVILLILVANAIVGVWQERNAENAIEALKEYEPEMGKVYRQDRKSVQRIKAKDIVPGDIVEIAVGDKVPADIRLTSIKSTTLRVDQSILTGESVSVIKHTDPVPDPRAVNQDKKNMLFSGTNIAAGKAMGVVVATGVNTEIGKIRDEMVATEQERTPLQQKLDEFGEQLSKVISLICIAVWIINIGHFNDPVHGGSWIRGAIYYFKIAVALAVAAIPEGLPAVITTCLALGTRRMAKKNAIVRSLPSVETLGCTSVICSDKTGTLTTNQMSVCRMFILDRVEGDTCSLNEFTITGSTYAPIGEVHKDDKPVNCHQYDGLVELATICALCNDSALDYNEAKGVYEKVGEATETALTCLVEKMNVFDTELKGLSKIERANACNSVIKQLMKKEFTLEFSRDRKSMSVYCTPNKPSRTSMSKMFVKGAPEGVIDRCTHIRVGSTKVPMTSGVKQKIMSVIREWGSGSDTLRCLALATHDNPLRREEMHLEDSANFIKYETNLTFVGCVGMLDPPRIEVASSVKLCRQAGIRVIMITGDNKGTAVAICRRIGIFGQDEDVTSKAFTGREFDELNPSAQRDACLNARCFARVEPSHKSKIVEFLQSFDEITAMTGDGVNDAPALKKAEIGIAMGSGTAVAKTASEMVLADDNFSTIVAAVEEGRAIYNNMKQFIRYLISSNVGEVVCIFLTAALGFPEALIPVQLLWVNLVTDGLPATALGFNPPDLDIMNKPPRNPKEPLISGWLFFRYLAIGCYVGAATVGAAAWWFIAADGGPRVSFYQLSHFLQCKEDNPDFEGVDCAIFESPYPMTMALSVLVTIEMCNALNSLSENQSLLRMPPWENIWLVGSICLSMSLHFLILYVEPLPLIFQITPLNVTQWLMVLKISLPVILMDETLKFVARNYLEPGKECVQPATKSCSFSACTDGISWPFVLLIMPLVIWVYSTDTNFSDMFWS

Row | Structure (SMILES) | SERCA2a HEK ER effect class | effect on SERCA2 ATPase activity, in words | EC50 (ATPase activity, range after the semicolon is not explained, read-out: SERCA2a HEK ER (EC50))
1 | COc1ccc2c(c1)CN(Cc1ccc(C(=O)O)cc1)CCS2 [ARM210, reference compound] | + | significant activation of SERCA2 ATPase | 
2 | COc1ccc(OCCCNCCCCC2(O)CC2)cc1 [Compound 13b, 1-(4-((3-(4-methoxyphenoxy)propyl)amino)butyl)cyclopropan-1-ol] | - |  | 
3 | COc1ccc2c(c1)CN(CCCCC1(O)CC1)CCS2 [Compound 13d, 1-(4-(7-methoxy-2,3-dihydrobenzo[1,4-f]thiazepin-4(5H)-yl)butyl)cyclopropan-1-ol] | + | significant activation of SERCA2 ATPase; also recorded: slight | 
4 | COc1ccc(SCCCNCCCCC2(O)CC2)cc1 [Compound 13c, 1-(4-((3-((4-Methoxyphenyl)thio)propyl)amino)butyl)cyclopropan-1-ol] | + | significant activation of SERCA2 ATPase | 
5 | COc1ccc2c(c1)CN(CCCCNCCCCC1(O)CC1)CCS2 [Compound 13a, 1-(4-((4-(7-Methoxy-2,3-dihydrobenzo[1,4-f]-thiazepin-4(5H)-yl)butyl)amino)butyl)cyclopropan-1-ol] | - | did not evoke significant increase in ATPase activity; also recorded: could not detect SERCA2 activation | 
6 | COc1ccc2c(c1)CN(CCCCN(CCCCC1(O)CC1)CCCCC1(O)CC1)CCS2 [Compound 14a, 1,1'-(((4-(7-Methoxy-2,3-dihydrobenzo[1,4-f]thiazepin-4(5H)-yl)butyl)azanediyl)bis(butane-4,1-diyl))bis(cyclopropan-1-ol)] | ++ |  | 16 nM
7 | COc1ccc(SCCCN(CCCCC2(O)CC2)CCCCC2(O)CC2)cc1 [Compound 14c, 1,1'-(((3-((4-Methoxyphenyl)thio)propyl)azanediyl)bis(butane-4,1-diyl))bis(cyclopropan-1-ol)] | + |  | 
